The source made the active and inactive calls. The calls are words filed in the database; no cut-off is given here.
Experiments:
NCI-H226 [1] = test: Antiproliferative activity against human NCI-H226 cells incubated for 48 hrs by MTT assay; type: functional, cell-based; settings: NCI-H226, 48 h
[2] = AUC (0 to infinity) in Sprague-Dawley rat at 30 mg/kg, po measured upto 24 hrs by UPLC-MS/MS; type: ADME, organism-based; parameters: dose 30 mg/kg, route oral, time infinity; settings: in vivo
[3] = biological target: T1, Epidermal growth factor receptor (Homo sapiens, UniProt P00533); test: Inhibition of EGFR in serum-starved human HCC827 cells assessed as reduction in EGF-induced AKT phosphorylation upto 10 uM incubated for 1 hr by Western blot analysis; type: cell-based
[4] = biological target: Inhibitor of nuclear factor kappa-B kinase subunit beta (Homo sapiens) (UniProt O14920); test: Inhibition of N-terminal GST tagged truncated human IKKbeta (1 to 662 AA) expressed in baculovirus at 10 uM using FAM-labelled peptide as substrate pre-incubated for 10 mins followed by substrate addition by mobility shift assay relative to control
NCI-H226 [5] = test: Induction of apoptosis in human NCI-H226 cells assessed as necrotic cells at 10 uM measured after 24 hrs by Annexin-V/propidium iodide staining-based flow cytometric analysis (reference value: 3%); type: functional
Mus musculus [6] = test: Down regulation of FGFR1 phosphorylation in BALB/c nude mouse xenografted with human HCC827GR cells at 15 mg/kg, ip dosed by western blot analysis; type: functional, organism-based
[7] = biological target: T1, Epidermal growth factor receptor; test: Inhibition of N-terminal GST-tagged human EGFR cytoplasmic domain (669-1210 AA) expressed in baculovirus using FAM-labelled peptide as substrate pre-incubated for 10 mins followed by substrate addition by mobility shift assay
NCI-H226 [8] = test: Induction of apoptosis in human NCI-H226 cells assessed as early apoptotic cells at 1 uM measured after 24 hrs by Annexin-V/propidium iodide staining-based flow cytometric analysis (reference value: 0.8%); type: functional
[9] = biological target: T2, Fibroblast growth factor receptor 1 (Homo sapiens, UniProt P11362); test: Inhibition of FGFR1 in gefitinib-insensitive human HCC827GR cells assessed as reduction in FGF-induced FGFR1 phosphorylation upto 10 uM measured after 2 hrs by western blot analysis
[10] = biological target: Hepatocyte growth factor receptor (Homo sapiens) (UniProt P08581); test: Inhibition of N-terminal GST-tagged human MET cytoplasmic domain (956 to 1360 AA) expressed in baculovirus at 10 uM using FAM-labelled peptide as substrate pre-incubated for 10 mins followed by substrate addition by mobility shift assay relative to control
[11] = Induction of apoptosis in gefitinib-insensitive human HCC827GR cells assessed as early apoptotic cells at 5 uM measured after 24 hrs by Annexin-V/propidium iodide staining-based flow cytometric analysis (reference value: 1.9%); type: functional
[12] = Half-life in Sprague-Dawley rat at 30 mg/kg, po measured upto 24 hrs by UPLC-MS/MS; type: ADME, organism-based; settings: in vivo
HCC827 = test: Antiproliferative activity against human HCC827 cells incubated for 48 hrs by MTT assay; type: functional, cell-based; settings: HCC827, 48 h
[13] = biological target: RAC-alpha serine/threonine-protein kinase (Homo sapiens) (UniProt P31749); test: Inhibition of N-terminal GST tagged human AKT1 catalytic domain (104 to 480 AA) expressed in baculovirus at 10 uM using FAM-labelled peptide as substrate pre-incubated for 10 mins followed by substrate addition by mobility shift assay relative to control
[14] = biological target: T1, Epidermal growth factor receptor; test: Inhibition of EGF-induced EGFR phosphorylation in serum-starved human HCC827 cells upto 10 uM incubated for 1 hr by Western blot analysis; type: cell-based
NCI-H226 [15] = test: Induction of apoptosis in human NCI-H226 cells assessed as viable cells at 5 uM measured after 24 hrs by Annexin-V/propidium iodide staining-based flow cytometric analysis (reference value: 93.4%); type: functional; settings: NCI-H226, 24 h, read-out: Activity
[16] = biological target: T2, Fibroblast growth factor receptor 1; test: Inhibition of FGFR in serum-starved human H520 cells assessed as reduction in FGFR-induced AKT phosphorylation upto 10 uM incubated for 1 hr by Western blot analysis
[17] = Induction of apoptosis in gefitinib-insensitive human HCC827GR cells assessed as early apoptotic cells at 10 uM measured after 24 hrs by Annexin-V/propidium iodide staining-based flow cytometric analysis (reference value: 1.9%); type: functional
[18] = biological target: Tyrosine-protein kinase JAK3 (Homo sapiens) (UniProt P52333); test: Inhibition of N-terminal GST tagged human JAK3 catalytic domain (795 to 1124 AA) expressed in baculovirus at 10 uM using FAM-labelled peptide as substrate pre-incubated for 10 mins followed by substrate addition by mobility shift assay relative to control
Homo sapiens = test: Antitumor activity against human HCC827GR cells xenografted in BALB/c nude mouse assessed as reduction in tumor volume at 15 mg/kg, ip dosed measured every 2 days upto 25 days; type: functional, organism-based
[19] = test system: Epidermal growth factor receptor (Homo sapiens), P00533 [L858R]; test: Inhibition of recombinant human EGFR L858R mutant expressed in baculovirus at 10 uM using FAM-labelled peptide as substrate pre-incubated for 10 mins followed by substrate addition by mobility shift assay relative to control
[20] = Antitumor activity against human HCC827GR cells xenografted in BALB/c nude mouse assessed as reduction in tumor weight at 15 mg/kg, ip dosed every 2 days (reference value: 0.82 +/- 0.06 g); type: functional
Mus musculus [21] = test: Down regulation of EGFR phosphorylation in BALB/c nude mouse xenografted with human HCC827GR cells at 15 mg/kg, ip dosed by western blot analysis; type: functional, organism-based
[22] = Induction of apoptosis in gefitinib-insensitive human HCC827GR cells assessed as necrotic cells at 5 uM measured after 24 hrs by Annexin-V/propidium iodide staining-based flow cytometric analysis (reference value: 5.8%); type: functional
NCI-H226 [23] = test: Induction of apoptosis in human NCI-H226 cells assessed as late apoptotic cells at 1 uM measured after 24 hrs by Annexin-V/propidium iodide staining-based flow cytometric analysis (reference value: 2.8%); type: functional
[24] = biological target: Proto-oncogene tyrosine-protein kinase Src (Homo sapiens) (UniProt P12931); test: Inhibition of full length N-terminal GST-tagged human SRC (1 to 536 AA) expressed in baculovirus at 10 uM using FAM-labelled peptide as substrate pre-incubated for 10 mins followed by substrate addition by mobility shift assay relative to control
[25] = biological target: Epidermal growth factor receptor (Homo sapiens, UniProt P00533, L858R); test: Inhibition of recombinant human EGFR L858R mutant expressed in baculovirus using FAM-labelled peptide as substrate pre-incubated for 10 mins followed by substrate addition by mobility shift assay
[26] = Cmax in Sprague-Dawley rat at 30 mg/kg, po measured upto 24 hrs by UPLC-MS/MS; type: ADME, organism-based; parameters: dose 30 mg/kg, route oral; settings: in vivo
[27] = biological target: Vascular endothelial growth factor receptor 3 (Homo sapiens) (UniProt P35916); test: Inhibition of N-terminal GST tagged human FLT4 cytoplasmic domain (798 to 1298 AA) expressed in baculovirus at 10 uM using FAM-labelled peptide as substrate pre-incubated for 10 mins followed by substrate addition by mobility shift assay relative to control
NCI-H226 [28] = test: Induction of apoptosis in human NCI-H226 cells assessed as viable cells at 1 uM measured after 24 hrs by Annexin-V/propidium iodide staining-based flow cytometric analysis (reference value: 93.4%); type: functional; settings: NCI-H226, 24 h, read-out: Activity

T1 sequence (P00533 whole entry, the tested form may be a part): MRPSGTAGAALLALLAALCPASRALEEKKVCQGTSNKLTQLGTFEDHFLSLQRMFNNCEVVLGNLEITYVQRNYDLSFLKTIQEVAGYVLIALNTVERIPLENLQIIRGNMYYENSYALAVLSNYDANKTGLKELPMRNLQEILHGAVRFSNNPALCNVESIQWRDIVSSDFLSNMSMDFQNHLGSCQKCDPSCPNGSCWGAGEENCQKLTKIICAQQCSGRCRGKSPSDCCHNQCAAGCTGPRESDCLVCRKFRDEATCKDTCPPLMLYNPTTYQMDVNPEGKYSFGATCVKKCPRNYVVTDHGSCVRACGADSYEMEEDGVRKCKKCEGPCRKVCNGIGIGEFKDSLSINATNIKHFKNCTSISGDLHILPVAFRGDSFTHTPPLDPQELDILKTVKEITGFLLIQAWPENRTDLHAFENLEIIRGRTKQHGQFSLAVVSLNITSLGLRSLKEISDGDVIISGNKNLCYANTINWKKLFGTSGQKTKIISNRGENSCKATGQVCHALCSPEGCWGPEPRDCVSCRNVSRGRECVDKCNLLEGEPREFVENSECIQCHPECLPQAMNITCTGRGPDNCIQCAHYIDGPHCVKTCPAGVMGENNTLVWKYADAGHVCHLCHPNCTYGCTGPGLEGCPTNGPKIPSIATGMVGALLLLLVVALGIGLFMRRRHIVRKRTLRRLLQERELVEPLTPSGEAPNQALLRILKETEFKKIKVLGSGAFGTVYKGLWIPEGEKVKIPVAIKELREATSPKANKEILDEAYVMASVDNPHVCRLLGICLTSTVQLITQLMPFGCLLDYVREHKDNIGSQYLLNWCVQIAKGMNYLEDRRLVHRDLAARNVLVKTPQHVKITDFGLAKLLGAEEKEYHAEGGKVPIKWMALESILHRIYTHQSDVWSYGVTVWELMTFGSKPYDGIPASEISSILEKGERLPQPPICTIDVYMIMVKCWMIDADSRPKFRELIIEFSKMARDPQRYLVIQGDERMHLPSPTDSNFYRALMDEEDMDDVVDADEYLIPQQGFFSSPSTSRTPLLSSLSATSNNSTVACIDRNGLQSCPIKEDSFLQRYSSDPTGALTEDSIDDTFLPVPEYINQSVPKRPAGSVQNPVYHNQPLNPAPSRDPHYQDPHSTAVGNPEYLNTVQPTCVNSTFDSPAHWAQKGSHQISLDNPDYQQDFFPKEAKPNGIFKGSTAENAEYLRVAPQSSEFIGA
T2 sequence (P11362 22-822 limits assumed): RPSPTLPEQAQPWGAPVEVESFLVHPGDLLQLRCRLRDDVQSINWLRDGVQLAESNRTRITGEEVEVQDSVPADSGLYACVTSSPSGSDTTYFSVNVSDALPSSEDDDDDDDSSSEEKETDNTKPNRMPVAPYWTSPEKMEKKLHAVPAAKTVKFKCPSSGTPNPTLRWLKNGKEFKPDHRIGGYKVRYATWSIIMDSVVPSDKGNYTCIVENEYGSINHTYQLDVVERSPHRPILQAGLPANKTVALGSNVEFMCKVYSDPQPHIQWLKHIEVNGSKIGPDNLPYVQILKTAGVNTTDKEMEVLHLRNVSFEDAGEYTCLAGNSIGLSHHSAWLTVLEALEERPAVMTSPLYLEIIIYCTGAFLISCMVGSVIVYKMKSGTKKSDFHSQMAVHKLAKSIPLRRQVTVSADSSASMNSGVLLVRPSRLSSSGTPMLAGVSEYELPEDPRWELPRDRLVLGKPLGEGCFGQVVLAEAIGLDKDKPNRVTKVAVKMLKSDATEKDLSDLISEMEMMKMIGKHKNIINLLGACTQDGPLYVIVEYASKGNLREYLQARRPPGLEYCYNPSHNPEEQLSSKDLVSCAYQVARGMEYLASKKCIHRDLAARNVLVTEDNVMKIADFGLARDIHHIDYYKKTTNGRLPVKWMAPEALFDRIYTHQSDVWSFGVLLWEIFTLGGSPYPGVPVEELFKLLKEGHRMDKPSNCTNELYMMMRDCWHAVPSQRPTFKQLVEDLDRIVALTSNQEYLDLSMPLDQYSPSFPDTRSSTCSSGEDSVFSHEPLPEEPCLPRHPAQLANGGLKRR
Sequence of Hepatocyte growth factor receptor (Homo sapiens) (P08581 whole entry, the tested form may be a part): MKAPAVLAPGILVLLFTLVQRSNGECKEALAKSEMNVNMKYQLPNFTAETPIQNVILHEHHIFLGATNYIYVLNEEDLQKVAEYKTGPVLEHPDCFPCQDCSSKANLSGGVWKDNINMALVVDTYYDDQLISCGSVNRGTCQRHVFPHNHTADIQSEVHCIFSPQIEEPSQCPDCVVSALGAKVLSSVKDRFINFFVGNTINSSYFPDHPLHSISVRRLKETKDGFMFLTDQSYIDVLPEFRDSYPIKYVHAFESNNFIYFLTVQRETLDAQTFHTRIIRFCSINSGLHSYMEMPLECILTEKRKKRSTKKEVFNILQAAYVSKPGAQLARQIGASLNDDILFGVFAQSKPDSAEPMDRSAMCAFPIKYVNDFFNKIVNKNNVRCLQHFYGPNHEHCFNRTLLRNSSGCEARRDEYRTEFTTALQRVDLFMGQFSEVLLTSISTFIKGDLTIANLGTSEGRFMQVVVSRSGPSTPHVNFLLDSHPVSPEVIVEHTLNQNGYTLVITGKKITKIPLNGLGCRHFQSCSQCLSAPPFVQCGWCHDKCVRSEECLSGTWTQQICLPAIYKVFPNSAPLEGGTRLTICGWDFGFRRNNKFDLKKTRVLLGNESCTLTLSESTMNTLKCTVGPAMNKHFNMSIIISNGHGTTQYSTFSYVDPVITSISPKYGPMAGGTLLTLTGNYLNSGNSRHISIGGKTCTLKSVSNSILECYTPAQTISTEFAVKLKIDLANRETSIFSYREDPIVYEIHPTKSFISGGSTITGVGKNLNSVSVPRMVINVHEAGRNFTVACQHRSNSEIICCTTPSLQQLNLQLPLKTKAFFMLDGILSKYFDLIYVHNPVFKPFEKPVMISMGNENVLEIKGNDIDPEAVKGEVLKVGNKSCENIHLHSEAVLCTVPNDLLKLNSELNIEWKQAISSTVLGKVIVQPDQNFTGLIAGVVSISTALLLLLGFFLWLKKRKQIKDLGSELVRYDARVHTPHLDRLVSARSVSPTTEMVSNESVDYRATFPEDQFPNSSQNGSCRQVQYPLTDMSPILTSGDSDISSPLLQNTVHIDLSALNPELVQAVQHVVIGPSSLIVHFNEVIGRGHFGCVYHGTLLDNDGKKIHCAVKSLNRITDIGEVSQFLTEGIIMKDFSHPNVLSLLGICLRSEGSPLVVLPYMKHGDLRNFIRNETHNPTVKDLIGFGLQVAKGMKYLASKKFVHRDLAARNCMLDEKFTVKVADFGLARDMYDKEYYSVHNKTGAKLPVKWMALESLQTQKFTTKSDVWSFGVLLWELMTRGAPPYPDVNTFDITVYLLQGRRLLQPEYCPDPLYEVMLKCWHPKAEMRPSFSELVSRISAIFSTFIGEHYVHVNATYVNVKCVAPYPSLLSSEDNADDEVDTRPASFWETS
Sequence of Tyrosine-protein kinase JAK3 (Homo sapiens) (P52333 whole entry, the tested form may be a part): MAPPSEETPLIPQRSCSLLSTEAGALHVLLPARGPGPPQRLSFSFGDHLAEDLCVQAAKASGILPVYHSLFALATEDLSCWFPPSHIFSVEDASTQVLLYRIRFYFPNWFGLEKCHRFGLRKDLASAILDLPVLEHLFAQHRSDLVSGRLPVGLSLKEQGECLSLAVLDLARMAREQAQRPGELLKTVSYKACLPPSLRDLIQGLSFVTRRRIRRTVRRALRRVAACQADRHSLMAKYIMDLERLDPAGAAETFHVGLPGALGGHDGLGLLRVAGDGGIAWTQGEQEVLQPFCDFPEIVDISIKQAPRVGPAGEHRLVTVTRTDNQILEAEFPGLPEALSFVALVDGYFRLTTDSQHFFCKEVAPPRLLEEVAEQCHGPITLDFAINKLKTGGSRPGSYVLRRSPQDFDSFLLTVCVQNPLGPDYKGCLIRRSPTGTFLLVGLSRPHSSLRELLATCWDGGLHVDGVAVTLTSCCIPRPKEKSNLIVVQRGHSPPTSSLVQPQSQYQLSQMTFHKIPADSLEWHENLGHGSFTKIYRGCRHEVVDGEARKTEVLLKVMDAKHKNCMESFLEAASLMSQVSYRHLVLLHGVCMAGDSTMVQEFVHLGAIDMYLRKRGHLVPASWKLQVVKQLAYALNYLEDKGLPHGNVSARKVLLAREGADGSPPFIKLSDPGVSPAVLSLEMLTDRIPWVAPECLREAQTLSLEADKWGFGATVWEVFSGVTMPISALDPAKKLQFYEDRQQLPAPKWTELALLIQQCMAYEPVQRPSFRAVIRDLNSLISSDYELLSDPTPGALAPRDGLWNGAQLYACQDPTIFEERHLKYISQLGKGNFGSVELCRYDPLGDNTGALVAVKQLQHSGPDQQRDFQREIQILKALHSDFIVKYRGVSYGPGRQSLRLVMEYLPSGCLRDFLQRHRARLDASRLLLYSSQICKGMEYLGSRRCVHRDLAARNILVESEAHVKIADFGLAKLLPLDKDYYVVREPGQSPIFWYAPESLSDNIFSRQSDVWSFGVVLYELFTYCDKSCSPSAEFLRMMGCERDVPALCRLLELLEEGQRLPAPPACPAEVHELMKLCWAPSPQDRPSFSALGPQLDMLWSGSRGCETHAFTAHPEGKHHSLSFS
Sequence of RAC-alpha serine/threonine-protein kinase (Homo sapiens) (P31749 whole entry, the tested form may be a part): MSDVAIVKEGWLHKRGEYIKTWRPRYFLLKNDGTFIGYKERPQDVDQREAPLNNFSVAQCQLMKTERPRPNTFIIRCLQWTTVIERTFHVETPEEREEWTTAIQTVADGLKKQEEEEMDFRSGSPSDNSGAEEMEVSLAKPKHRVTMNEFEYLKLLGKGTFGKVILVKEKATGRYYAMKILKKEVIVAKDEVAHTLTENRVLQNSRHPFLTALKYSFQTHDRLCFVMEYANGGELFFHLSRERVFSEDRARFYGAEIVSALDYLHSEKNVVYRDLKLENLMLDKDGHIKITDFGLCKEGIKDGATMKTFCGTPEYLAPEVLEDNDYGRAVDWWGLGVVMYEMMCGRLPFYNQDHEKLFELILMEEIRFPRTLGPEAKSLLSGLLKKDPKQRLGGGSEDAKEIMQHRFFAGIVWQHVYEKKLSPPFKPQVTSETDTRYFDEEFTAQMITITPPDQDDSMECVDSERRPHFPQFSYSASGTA

For `COc1ccc(OC)c(Nc2cc(NC(=O)Nc3c(Cl)cccc3Cl)ncn2)c1`, the IC50 (NCI-H226 [1]) was 2260 nM, the AUC(0-inf) [2] was 13000 ng·h/mL and the inhibition [3] was “Active”. For the same compound, the inhibition [4] was -0.73%, the Activity (NCI-H226 [5]) was 11.8% and the Activity (Mus musculus [6]) was “Active”. For the same compound, the IC50 [7] was 202 nM, the Activity (NCI-H226 [8]) was 3% and the inhibition [9] was “Active”. For the same compound, the inhibition [10] was -0.39%, the Activity [11] was 1.7% and the half-life [12] was 7.07 h. For the same compound, the IC50 (HCC827) was 1250 nM, the inhibition [13] was 19.4% and the inhibition [14] was “Active”. For the same compound, the viability at 5 µM (NCI-H226 [15]) was 79.6%, the inhibition [16] was “Active” and the Activity [17] was 13%. The inhibition [18] was 3.36%, the Activity (Homo sapiens) was “Active” and the inhibition [19] was 96.9%. The Activity [20] was 0.41 g, the Activity (Mus musculus [21]) was “Active” and the Activity [22] was 4.1%. The Activity (NCI-H226 [23]) was 3.5%, the inhibition [24] was 45.8% and the IC50 [25] was 39 nM. For the same compound, the Cmax [26] was 1270 ng/mL, the inhibition [27] was 43.6% and the viability at 1 µM (NCI-H226 [28]) was 87.7%.

— ChEMBL document CHEMBL4414679, “Discovery of 4,6-pyrimidinediamine derivatives as novel dual EGFR/FGFR inhibitors aimed EGFR/FGFR1-positive NSCLC” (Eur J Med Chem, 2020)
